Read-outs that look alike come from different tables or passages of the source.
How the values were obtained:
VEGF receptor KDR = molecular target: T1, VEGF receptor KDR (Homo sapiens, UniProt P35968); test: In vitro receptor tyrosine kinase assay (DELFIA), VEGF receptor KDR; type: biochemical
T1 construct: made in house; host or cells: Sf9 cells (Spodoptera frugiperda), baculovirus
Description: In the case of VEGF receptor KDR a 1.6-kb cDNA corresponding to the catalytic domain of VEGFR2 or KDR (Genbank accession number AF035121 amino acid 806 to 1356) was cloned into the Pst I site of the pDEST20 Gateway vector (Invitrogen) for the production of a GST-tagged version of that enzyme.
The GST-VEGFR2806-1356 protein was expressed in […] (Spodoptera frugiperda) upon infection with recombinant baculovirus construct. […] Cell pellets were frozen at −80° C. until purification was performed.
The supernatant (cell extract) was used as starting material for purification of GST-VEGFR2806-1356.
The supernatant was loaded onto a GST-agarose column (Sigma) equilibrated with PBS pH 7.3. Following a four column volume (CV) wash with PBS pH 7.3+1% Triton X-100 and 4 CV wash with buffer B (50 mM Tris pH 8.0, 20% glycerol and 100 mM NaCl), bound proteins were step eluted with 5 CV of buffer B supplemented with 5 mM DTT and 15 mM glutathion. GST-VEGFR2806-1356 enriched fractions from this chromatography step were pooled based on U.V. trace i.e. fractions with high O.D.280. Final GST-VEGFR2806-1356 protein preparations concentrations were about 0.7 mg/ml with purity approximating 70%.
(§1) The coated plates were washed and stored at 4° C. […] After incubation, the kinase reactions were quenched with EDTA and the plates were washed.

[1] = molecular target: T2, recombinant human c-Met/HGF receptor (Homo sapiens, UniProt P08581); test: In vitro receptor tyrosine kinase assay (DELFIA), c-Met/HGF receptor; type: biochemical
T2 construct: His tag (pBlueBacHis2A vector); made in house; host or cells: Hi-5 cells (Trichoplusia ni), baculovirus
T2 sequence (P08581 1078-1337): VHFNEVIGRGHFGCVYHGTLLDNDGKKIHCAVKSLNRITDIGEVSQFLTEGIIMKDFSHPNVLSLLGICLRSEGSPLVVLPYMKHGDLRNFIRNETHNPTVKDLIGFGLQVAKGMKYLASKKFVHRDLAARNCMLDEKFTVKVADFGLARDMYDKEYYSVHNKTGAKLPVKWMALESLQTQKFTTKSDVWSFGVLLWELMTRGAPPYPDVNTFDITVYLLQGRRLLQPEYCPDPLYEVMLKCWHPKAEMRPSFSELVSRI
Description: Cell pellets were frozen at −80° C. until purification was performed.
as §1

DU145 = DU145 scattering inhibition (HGF dependent scattering); type: cell-based; conditions: Homo sapiens
Source text: (§2) HGF has well known activity in terms of inducing scattering and migration (wound healing) (Wells et al., Cell Motil Cytoskeleton. 2005 November 62(3):180-94; Miura et al., Urology 2001 December 58(6):1064-9; Nishimura et al., Int J Urol. 1998 May 5(3):276-81; Wang et al., Mol Cancer Ther. 2003 November; 2(11):1085-92; and Christensen et al., Cancer Res. 2003 Nov. 1; 63(21):7345-55).

A549 = A549 wound healing inhibition (HGF dependent migration); type: cell-based; conditions: Homo sapiens, A549 cells, read-out: A549 WOUND HEALING INHIB IC50
Source text: as §2

[2] = DU-145, HGF dependent scattering, DU145 cells, read-out: DU145 SCATTERING INHIB IC50
[3] = DU-145, read-out: DU145 […] IC50
[4] = GST-VEGFR2 806-1356, 0.6 uM ATP, DELFIA, read-out: VEGFR (IC50)
[5] = recombinant c-Met IC, 10 uM ATP, DELFIA, read-out: C-Met (IC50)

T1 sequence (P35968 806-1356): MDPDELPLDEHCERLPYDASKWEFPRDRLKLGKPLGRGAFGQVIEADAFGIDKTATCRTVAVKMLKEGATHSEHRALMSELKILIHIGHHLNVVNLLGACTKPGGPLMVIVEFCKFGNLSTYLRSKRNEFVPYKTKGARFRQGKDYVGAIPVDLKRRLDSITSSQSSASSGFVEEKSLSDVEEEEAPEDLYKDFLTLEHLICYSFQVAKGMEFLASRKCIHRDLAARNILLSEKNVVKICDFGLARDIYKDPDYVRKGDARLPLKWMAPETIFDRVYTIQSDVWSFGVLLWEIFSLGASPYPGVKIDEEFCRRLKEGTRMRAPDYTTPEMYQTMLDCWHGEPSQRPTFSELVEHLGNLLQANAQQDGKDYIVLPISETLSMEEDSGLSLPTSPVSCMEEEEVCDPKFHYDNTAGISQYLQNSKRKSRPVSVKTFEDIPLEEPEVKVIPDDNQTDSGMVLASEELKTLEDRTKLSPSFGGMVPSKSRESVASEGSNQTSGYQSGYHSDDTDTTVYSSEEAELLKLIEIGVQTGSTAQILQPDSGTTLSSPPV

IC50 (VEGF receptor KDR; read-out: VEGFR IC50) [nM] | IC50 ([1]; read-out: CMET IC50) [nM] | IC50 (DU145; [2]) [nM] | IC50 (A549) [nM] | IC50 (VEGF receptor KDR; [4]) [nM] | IC50 [1, 5] [nM] | SMILES | IC50 (DU145; [3]) [nM] | IC50 [1] [nM]
< 50 | < 50 | < 1000 | < 1000 | – | – | CN1CCN(CCN(C)Cc2ccc(-c3cc4nccc(Oc5ccc(NC(=O)CC(=O)Nc6ccccc6)cc5F)c4s3)cc2)CC1 [drawing 351] | – | –
< 50 | < 50 | < 1000 | < 1000 | – | – | Cn1cnc(-c2cc3nccc(Oc4ccc(NC(=O)C5(C(=O)Nc6ccc(F)cc6)CC5)cc4F)c3s2)c1 | – | –
250 to 500 | 50 to 250 | > 10000 | 1000 to 5000 | – | – | O=C(CC(=O)Nc1ccccc1F)Nc1ccc(Oc2ccnc3cc(C#CCN4CCOCC4)sc23)c(F)c1 | – | –
50 to 250 | < 50 | 1000 to 5000 | 1000 to 5000 | – | – | O=C(CC(=O)Nc1ccccc1F)Nc1ccc(Oc2ccnc3cc(-c4cccc(CN5CCOCC5)c4)sc23)c(F)c1 | – | –
< 50 | < 50 | < 1000 | < 1000 | – | – | CCn1cnc(-c2cc3nccc(Oc4ccc(NC(=O)C5(C(=O)Nc6ccccc6)CC5)cc4F)c3s2)c1 [drawing 317] | – | –
< 50 | < 50 | < 1000 | < 1000 | – | – | O=C(CC(=O)Nc1ccc(Oc2ccnc3cc(-c4cccc[n+]4[O-])sc23)c(F)c1)Nc1ccccc1 | – | –
> 500 | 250 to 500 | > 10000 | > 10000 | – | – | CN(C)NC(=O)c1cc2nccc(Oc3ccc(NC(=O)CC(=O)N(C)c4ccccc4)cc3F)c2s1 | – | –
< 50 | < 50 | < 1000 | < 1000 | – | – | CCn1cnc(-c2cc3nccc(Oc4ccc(NC(=O)CC(=O)N5CCc6ccccc65)cc4F)c3s2)c1 | – | –
50 to 250 | 50 to 250 | > 10000 | > 10000 | – | – | COc1ccccc1NC(=O)CC(=O)Nc1ccc(Oc2ccnc3cc(C#CCN(C)C)sc23)c(F)c1 | – | –
< 50 | < 50 | < 1000 | 1000 to 5000 | – | – | CN1CCN(CCN(C)Cc2ccc(-c3cc4nccc(Oc5ccc(NC(=O)C6(C(=O)Nc7ccc(F)cc7)CC6)cc5F)c4s3)cc2)CC1 | – | –
< 50 | 50 to 250 | < 1000 | < 1000 | – | – | Cn1cnc(-c2cc3nccc(Oc4ccc(NC(CC(=O)Nc5ccc(F)cc5)C(F)(F)F)cc4F)c3s2)c1 (centres unmarked) | – | –
< 50 | < 50 | < 1000 | 1000 to 5000 | – | – | CC(C)n1cnc(-c2cc3nccc(Oc4ccc(NC(=O)CC(=O)Nc5ccccc5F)cc4F)c3s2)c1 | – | –
< 50 | < 50 | < 1000 | < 1000 | – | – | CCn1cnc(-c2cc3nccc(Oc4ccc(NC(=O)CC(=O)N5CCOc6ccccc65)cc4F)c3s2)c1 | – | –
< 50 | 50 to 250 | 1000 to 5000 | < 1000 | – | – | CCn1cnc(-c2cc3nccc(Oc4ccc(NC(=O)CC(=O)Nc5cccc(F)c5)cc4F)c3s2)c1 | – | –
50 to 250 | < 50 | < 1000 | < 1000 | – | – | Cn1ccnc1-c1cc2nccc(Sc3ccc(NC(=O)N4CCN(c5ccccc5)C4=O)cc3)c2s1 | – | –
– | – | – | – | 3 | 25 | CCn1cnc(-c2cc3nccc(Oc4ccc(NC(=O)CC(=O)Nc5ccccc5OC)cc4F)c3s2)c1 [Compound 28b, N^1-(4-(2-(1-Ethyl-1H-imidazol-4-yl)thieno[3,2-b]pyridin-7-yloxy)-3-fluorophenyl)-N^3-(2-methoxyphenyl)malonamide] | – | –
< 50 | 50 to 250 | 1000 to 5000 | 1000 to 5000 | – | – | CN1CCN(CCN(C)Cc2ccc(-c3cc4nccc(Oc5ccc(NC(=O)CC(=O)Nc6cccc(F)c6)cc5F)c4s3)cc2)CC1 | – | –
< 50 | < 50 | < 1000 | < 1000 | – | – | CCn1cnc(-c2cc3nccc(Oc4ccc(NC(=S)N5CCN(c6ccccc6)C5=O)cc4F)c3s2)c1 | – | –
< 50 | < 50 | < 1000 | 1000 to 5000 | – | – | CN1CC=C(c2cc3nccc(Oc4ccc(NC(=O)C5(C(=O)Nc6ccccc6)CC5)cc4F)c3s2)CC1 | – | –
< 50 | < 50 | < 1000 | < 1000 | – | – | CCn1cnc(-c2cc3nccc(Oc4ccc(NC(=O)CC(=O)Nc5ccc(F)cc5)cc4F)c3s2)c1 | – | –
< 50 | < 50 | < 1000 | < 1000 | – | – | CCn1ccnc1-c1cc2nccc(Oc3ccc(NC(=O)N4CCN(c5ccccc5)C4=O)cc3F)c2s1 | – | –
– | – | – | – | 14 | 173 | Cn1ccnc1-c1cc2nccc(Oc3ccc(NC(=O)CC(=O)Oc4ccccc4)cc3F)c2s1 [Compound 47, N-{3-Fluoro-4-[2-(1-methyl-1H-imidazol-2-yl)-thieno[3,2-b]pyridin-7-yloxy]-phenyl}-malonamic acid phenyl ester] | – | –
– | – | – | – | 199 | 270 | O=C(CC(=O)Nc1ccc(Oc2ccnc3ccsc23)c(F)c1)Nc1ccccc1 [Compound 5a, N^1-(3-Fluoro-4-(thieno[3,2-b]pyridin-7-yloxy)phenyl)-N^3-phenylmalonamide] | – | –
< 50 | < 50 | – | – | – | – | O=C(CC(=O)Nc1ccc(Oc2ccnc3cc(C(=O)N4CCCC4)sc23)c(F)c1)Nc1ccccc1 [drawing 280] | – | –
– | – | – | – | – | 24 | CCn1cnc(-c2cc3nccc(Oc4ccc(NC(=O)CC(=O)Nc5ccccc5F)cc4F)c3s2)c1 [Compound 30b, N^1-(4-(2-(1-Ethyl-1H-imidazol-4-yl)thieno[3,2-b]pyridin-7-yloxy)-3-fluorophenyl)-N^3-(2-fluorophenyl)malonamide] | – | –
– | – | – | – | 13 | 60 | COc1ccccc1NC(=O)CC(=O)Nc1ccc(Oc2ccnc3cc(-c4ccc(CN5CCCC5)cc4)sc23)c(F)c1 [Compound 48, N^1-(3-Fluoro-4-(2-(4-(pyrrolidin-1-ylmethyl)phenyl)-thieno[3,2-b]pyridin-7-yloxy)phenyl)-N^3-(2-methoxyphenyl)malonamide] | – | –
– | 50 to 250 | < 1000 | 1000 to 5000 | – | – | CN(c1ccc(NC(=O)C2(C(=O)Nc3ccccc3)CC2)cc1F)c1ccnc2cc(-c3cn(C)cn3)sc12 | – | –
– | – | – | – | 5 | 77 | CC(C(=O)Nc1ccccc1)C(=O)Nc1ccc(Oc2ccnc3cc(-c4nccn4C)sc23)c(F)c1 (centres unmarked) [Compound 38, N^1-(3-Fluoro-4-(2-(1-methyl-1H-imidazol-2-yl)thieno[3,2-b]pyridin-7-yloxy)phenyl)-2-methyl-N^3-phenylmalonamide] | – | –
– | – | – | – | 89 | 65 | CN(C)[C@@H]1CCN(C(=O)c2cc3nccc(Oc4ccc(NC(=O)CC(=O)Nc5ccccc5)cc4F)c3s2)C1 [Compound 5g, (R)—N^1-(4-(2-(3-(Dimethylamino)pyrrolidine-1-carbonyl)thieno[3,2-b]pyridin-7-yloxy)-3-fluorophenyl)-N^3-phenylmalonamide] | – | –
– | – | – | – | 24 | 132 | Cn1cncc1-c1cc2nccc(Oc3ccc(NC(=O)CC(=O)Nc4cccnc4)cc3F)c2s1 [Compound 41, N-{3-Fluoro-4-[2-(3-methyl-3H-imidazol-4-yl)-thieno[3,2-b]pyridin-7-yloxy]-phenyl}-N′-pyridin-3-yl-malonamide] | – | –

SMILES | IC50 (VEGF receptor KDR; read-out: VEGFR IC50) [nM] | IC50 ([1]; read-out: CMET IC50) [nM] | IC50 (DU145; [2]) [nM] | IC50 (A549) [nM] | IC50 (VEGF receptor KDR; [4]) [nM] | IC50 [1, 5] [nM] | IC50 (DU145; [3]) [nM] | IC50 [1] [nM]
Cn1cnc(-c2cc3nccc(Oc4ccc(NC(=O)N5CCN(c6ccccc6)C5=O)cc4F)c3s2)c1 | < 50 | – | – | < 1000 | – | – | < 1000 | –
Cn1cnc(-c2cc3nccc(Oc4ccc(NC(CC(=O)Nc5ccccc5)C(F)(F)F)cc4F)c3s2)c1 (centres unmarked) | < 50 | – | – | 1000 to 5000 | – | – | 1000 to 5000 | –
Cn1cnc(-c2cc3nccc(Oc4ccc(NC(=O)CC(Nc5ccccc5)C(F)(F)F)cc4F)c3s2)c1 (centres unmarked) | 50 to 250 | – | – | 1000 to 5000 | – | – | 1000 to 5000 | –
CCn1cnc(-c2cc3nccc(Oc4ccc(NC(=O)CC(=O)Nc5ccccc5)cc4F)c3s2)c1 [drawing 291] | 50 to 250 | < 50 | – | – | – | – | – | –
CCn1cnc(-c2cc3nccc(Oc4ccc(NC(=O)CC(=O)Nc5ccccc5)cc4F)c3s2)c1 [Compound 5d, N^1-(4-(2-(1-Ethyl-1H-imidazol-4-yl)thieno[3,2-b]pyridin-7-yloxy)-3-fluorophenyl)-N^3-phenylmalonamide] | – | – | – | – | 5 | – | – | 19

Reference: patent US8329726B2, “Inhibitors of VEGF receptor and HGF receptor signaling” (MethylGene Inc., priority 2005, dated 2012)
